Source: patent US6992079B2, “Substituted 11-phenyl-dibenzazepine compounds useful for the treatment or prevention of diseases characterized by abnormal cell proliferation” (President Fellows of Harvard College, priority 1997, dated 2006)
Read-outs that look alike come from different tables or passages of the source.

Tests used:
[1] = tested on: A549/ATCC; format: cell-based
[2] = tested on: DU-145; assay: In-Vitro Testing SRB panel: Prostate Cancer; format: cell-based; conditions: DU-145
[3] = tested on: SF-268; assay: In-Vitro Testing SRB panel: CNS Cancer; format: cell-based; conditions: SF-268
[4] = tested on: H209 small lung cell carcinoma; assay: Mouse xenograft tumor growth; format: in vivo, SCID mice
[5] = tested on: squamous cell carcinoma (KLN-205) cells; assay: Tumor growth in murine squamous cell carcinoma model; format: in vivo, mouse; conditions: KLN-205; subcutaneous injection or oral administration of 80 mg/kg/day for 30 days
[6] = tested on: SK-MEL-2; assay: In-Vitro Testing SRB panel: Melanoma; format: cell-based; conditions: SK-MEL-2
[7] = tested on: SR; assay: In-Vitro Testing SRB panel: Leukemia; format: cell-based
[8] = tested on: RL-60 (TS); assay: In-Vitro Testing SRB panel: Leukemia; format: cell-based
[9] = In-Vitro Testing SRB panel: Renal Cancer; format: cell-based
[10] = tested on: CARI-1; assay: In-Vitro Testing SRB panel: Renal Cancer; format: cell-based
[11] = tested on: SK-MEL-2B; assay: In-Vitro Testing SRB panel: Melanoma; format: cell-based
[12] = tested on: A2058 metastatic melanoma; assay: Mouse xenograft tumor growth; format: in vivo, CD-1 nude mice
Procedure: NCI-A2058 human melanoma cell line was grown as monolayer culture in Minimum essential medium (D-MEM) supplemented with 10% fetal bovine serum (FBS), 0.1 mM non-essential amino acid, 1.0 mM sodium pyruvate, 100U/ml penicillin, 100 μg/ml streptomycin and 0.25 μg/ml amphotericin B and L-alanyl-1-glutamine (2 mM) at 37° C. in an atmosphere of 5% CO2 in air. The tumor cells were routinely subcultured twice weekly by trypsin-EDTA treatment. The cells were harvested from subconfluent logarithmically growing culture by treatment with typsin-EDTA and counted for tumor inoculation.
An acclimation period of at least 7 days were allowed between animal receipt and commence of tumor inoculation. When the female CD-1 nude mice were more than 6-7 weeks of age (20-25 g), each mouse was subcutaneously injected with 5.0×10^6 NCI-A2058 human melanoma cells in 0.1 ml of PBS solution at the right flank of the mice to induce tumor growth.

[13] = tested on: LOX IMVI; assay: In-Vitro Testing SRB panel: Melanoma; format: cell-based
[14] = tested on: M14; assay: In-Vitro Testing SRB panel: Melanoma; format: cell-based; conditions: M14
[15] = tested on: MOLT-4; assay: In-Vitro Testing SRB panel: Leukemia; format: cell-based; conditions: MOLT-4
[16] = tested on: PC-3; assay: In-Vitro Testing SRB panel: Prostate Cancer; format: cell-based; conditions: PC-3
[17] = tested on: UACC-257; assay: In-Vitro Testing SRB panel: Melanoma; format: cell-based; conditions: UACC-257
[18] = Homo sapiens, read-out: LC50 (the source's name)

## COc1cccc2c1C(c1ccccc1Cl)c1cc(Cl)ccc1N(C(=O)c1ccc([N+](=O)[O-])cc1)C2 (stereo not shown) [Compound 31]
[1]; A549/ATCC
  TGI: >1.00E−04 Molar
[1]; A549/ATCC, log10 conc -4 Molar
  Percent Growth: 3%
[1]; A549/ATCC, log10 conc -5 Molar
  Percent Growth: 11%
[1]; A549/ATCC, log10 conc -6 Molar
  Percent Growth: 61%
[1]; A549/ATCC, log10 conc -7 Molar
  Percent Growth: 98%
[1]; A549/ATCC, log10 conc -8 Molar
  Percent Growth: 94%
[1]; Homo sapiens, A549
  GI50: 1.67 µM
[1]; Homo sapiens, A549/ATCC, read-out: LC50 (the source's name)
  CC50: > 100 µM
[2]
  TGI: >1.00E−04 Molar
[2]; log10 conc -4 Molar
  Percent Growth: 26%
[2]; log10 conc -5 Molar
  Percent Growth: 43%
[2]; log10 conc -6 Molar
  Percent Growth: 84%
[2]; log10 conc -7 Molar
  Percent Growth: 105%
[2]; log10 conc -8 Molar
  Percent Growth: 105%
[2]; Homo sapiens
  GI50: 6.84 µM
[2]; [18]
  CC50: > 100 µM
[3]; Homo sapiens
  GI50: 5.28 µM
[3]; [18]
  CC50: > 100 µM
[3]
  TGI: >1.00E−04 Molar
[3]; log10 conc -4 Molar
  Percent Growth: 46%
[3]; log10 conc -5 Molar
  Percent Growth: 47%
[3]; log10 conc -6 Molar
  Percent Growth: 59%
[3]; log10 conc -7 Molar
  Percent Growth: 105%
[3]; log10 conc -8 Molar
  Percent Growth: 94%
[4]
  tumor growth: showed inhibition of tumor growth
[5]
  tumor growth: significantly inhibited tumor growth
[6]; Homo sapiens
  GI50: 79.3 µM
[6]; [18]
  CC50: > 100 µM
[6]
  TGI: >1.00E−04 Molar
[6]; log10 conc -4 Molar
  Percent Growth: 47%
[6]; log10 conc -5 Molar
  Percent Growth: 78%
[6]; log10 conc -6 Molar
  Percent Growth: 102%
[6]; log10 conc -7 Molar
  Percent Growth: 99%
[6]; log10 conc -8 Molar
  Percent Growth: 101%
[7]
  TGI: >1.00E−04 Molar
[7]; Homo sapiens
  GI50: 0.128 µM
[7]; [18]
  CC50: > 100 µM
[7]; log10 conc -4 Molar
  Percent Growth: 4%
[7]; log10 conc -5 Molar
  Percent Growth: 7%
[7]; log10 conc -6 Molar
  Percent Growth: 13%
[7]; log10 conc -7 Molar
  Percent Growth: 54%
[7]; log10 conc -8 Molar
  Percent Growth: 94%
[8]; Homo sapiens
  GI50: 0.512 µM
[8]; Homo sapiens, RL-60 (TB), read-out: LC50 (the source's name)
  CC50: > 100 µM
[8]; RL-60 (TB)
  TGI: 1.28E−05 Molar
[8]; RL-60 (TB), log10 conc -4 Molar
  Percent Growth: −19%
[8]; RL-60 (TB), log10 conc -5 Molar
  Percent Growth: 3%
[8]; RL-60 (TB), log10 conc -6 Molar
  Percent Growth: 39%
[8]; RL-60 (TB), log10 conc -7 Molar
  Percent Growth: 77%
[8]; RL-60 (TB), log10 conc -8 Molar
  Percent Growth: 81%
[9]; DO-31
  TGI: >1.00E−04 Molar
[9]; DO-31, log10 conc -4 Molar
  Percent Growth: 1%
[9]; DO-31, log10 conc -5 Molar
  Percent Growth: 19%
[9]; DO-31, log10 conc -6 Molar
  Percent Growth: 61%
[9]; DO-31, log10 conc -7 Molar
  Percent Growth: 104%
[9]; DO-31, log10 conc -8 Molar
  Percent Growth: 94%
[9]; Homo sapiens
  GI50: 1.82 µM
[9]; Homo sapiens, DO-31, read-out: LC50 (the source's name)
  CC50: > 100 µM
[10]; CARI-1
  TGI: >1.00E−04 Molar
[10]; CARI-1, log10 conc -4 Molar
  Percent Growth: 4%
[10]; CARI-1, log10 conc -5 Molar
  Percent Growth: 37%
[10]; CARI-1, log10 conc -6 Molar
  Percent Growth: 48%
[10]; CARI-1, log10 conc -7 Molar
  Percent Growth: 80%
[10]; CARI-1, log10 conc -8 Molar
  Percent Growth: 103%
[10]; Homo sapiens
  GI50: 0.888 µM
[10]; Homo sapiens, CARI-1, read-out: LC50 (the source's name)
  CC50: > 100 µM
[11]; Homo sapiens
  GI50: 7.47 µM
[11]; Homo sapiens, SK-MEL-2B, read-out: LC50 (the source's name)
  CC50: > 100 µM
[11]; SK-MEL-2B
  TGI: >1.00E−04 Molar
[11]; SK-MEL-2B, log10 conc -4 Molar
  Percent Growth: 31%
[11]; SK-MEL-2B, log10 conc -5 Molar
  Percent Growth: 48%
[11]; SK-MEL-2B, log10 conc -6 Molar
  Percent Growth: 62%
[11]; SK-MEL-2B, log10 conc -7 Molar
  Percent Growth: 87%
[11]; SK-MEL-2B, log10 conc -8 Molar
  Percent Growth: 92%
[12]
  tumor growth: showed inhibition of tumor growth
[13]
  TGI: >1.00E−04 Molar
[13]; Homo sapiens
  GI50: 0.617 µM
[13]; [18]
  CC50: > 100 µM
[13]; log10 conc -4 Molar
  Percent Growth: 13%
[13]; log10 conc -5 Molar
  Percent Growth: 12%
[13]; log10 conc -6 Molar
  Percent Growth: 39%
[13]; log10 conc -7 Molar
  Percent Growth: 93%
[13]; log10 conc -8 Molar
  Percent Growth: 97%
[14]; Homo sapiens
  GI50: 1.22 µM
[14]; [18]
  CC50: > 100 µM
[14]
  TGI: >1.00E−04 Molar
[14]; log10 conc -4 Molar
  Percent Growth: 21%
[14]; log10 conc -5 Molar
  Percent Growth: 30%
[14]; log10 conc -6 Molar
  Percent Growth: 52%
[14]; log10 conc -7 Molar
  Percent Growth: 93%
[14]; log10 conc -8 Molar
  Percent Growth: 92%
[15]; Homo sapiens
  GI50: 0.336 µM
[15]; [18]
  CC50: > 100 µM
[15]
  TGI: >1.00E−04 Molar
[15]; log10 conc -4 Molar
  Percent Growth: 6%
[15]; log10 conc -5 Molar
  Percent Growth: 14%
[15]; log10 conc -6 Molar
  Percent Growth: 24%
[15]; log10 conc -7 Molar
  Percent Growth: 79%
[15]; log10 conc -8 Molar
  Percent Growth: 95%
[16]; Homo sapiens
  GI50: 0.334 µM
[16]; [18]
  CC50: > 100 µM
[16]
  TGI: 7.30E−06 Molar
[16]; log10 conc -4 Molar
  Percent Growth: −26%
[16]; log10 conc -5 Molar
  Percent Growth: −6%
[16]; log10 conc -6 Molar
  Percent Growth: 35%
[16]; log10 conc -7 Molar
  Percent Growth: 66%
[16]; log10 conc -8 Molar
  Percent Growth: 91%
[17]; Homo sapiens
  GI50: 0.94 µM
[17]; [18]
  CC50: > 100 µM
[17]
  TGI: >1.00E−04 Molar
[17]; log10 conc -4 Molar
  Percent Growth: 7%
[17]; log10 conc -5 Molar
  Percent Growth: 27%
[17]; log10 conc -6 Molar
  Percent Growth: 49%
[17]; log10 conc -7 Molar
  Percent Growth: 91%
[17]; log10 conc -8 Molar
  Percent Growth: 98%
